Drawing on a melting point compilation (Tetko et al.; mined from patent text by program, amines drawn as free bases though some values may be those of a salt), this text covers melting point for 89 molecules.

`CC(CN1CCCS1(=O)=O)c1ccncc1` (centres undefined) yielded a melting point of 90 to 92 °C.

In turn, `CC(C)(C)c1cc(C(=O)OCc2ccc(C(=O)OCc3ccccc3)cc2)cc(C(C)(C)C)c1O` returned a melting point of 110 to 111 °C.

`COc1cc2c(cc1OC)N(C(=O)OCc1ccccc1)C(C)C(=CO)C2=O` (centres undefined) had a melting point of 106 to 110 °C.

On to `CON=C(C(=O)N(C)C)C(C)=NOCc1ccc(C)cc1`, for which the melting point lay within 68 to 69 °C.

Take `COC(=O)c1c(C(=O)O)cc2ccc3c(c2c1-c1ccc2c(c1)OCO2)OCO3`: the melting point lay within 273 to 275 °C.

For `CCc1ccccc1Sc1c(O)cc(-c2ccccc2)oc1=O`, the melting point is 190 to 192 °C.

`O=c1ccc(-c2ccc(Cl)cc2)n[nH]1`: the melting point is 175 to 176 °C.

`Fc1cc(C(F)(F)F)cc(Cl)c1Oc1ccc2cn[nH]c2c1`: the melting point lay within 134 to 143 °C.

Turning to `O=C1CCC(N2C(=O)c3cccc(CNC(=O)c4cncnc4)c3C2=O)C(=O)N1` (centres undefined), the melting point was above 260 °C.

Molecule `Cc1ccccc1C(=O)Nc1ccc(C(=O)N2Cc3cccn3Cc3ccccc32)cc1Cl` displayed a melting point of 176 to 178 °C.

For the molecule `Cc1ccc(-c2nnc(N3CCC(=O)CC3)nc2-c2ccc(C)cc2)cc1`, the melting point was 197 to 199 °C.

In turn, `CN(C)C(=O)c1nc(-c2ccccc2)nc2c1c1ccc(F)cc1n2C` registered a melting point of 229 to 231 °C.

`COc1ncc(NS(=O)(=O)c2cccc(Cl)c2Cl)c(OC)n1` gave a melting point of 124 to 126 °C.

The molecule `Cc1nnc2n1-c1ccccc1NC2C` (centres undefined) registered a melting point of 172 to 173 °C.

For the molecule `CN1N=C2C(=Cc3ccccc3)CN(C(=O)CCCl)CC2C1c1ccccc1` (centres undefined), the melting point was in the range of 134 to 136 °C.

Regarding `O=C(CN1CCN(c2ncccn2)CC1)c1ccc(-c2cccc(C(F)(F)F)c2)nc1`, the melting point lay in the range of 124 to 126 °C.

Regarding `CC=CN(C=CC)c1ccc2[nH]c3cnc(-c4nc(CC)no4)cc3c2c1`, the melting point lay within 151 to 156 °C.

With `CCOC(=O)C1=CC(C(=O)c2cc(Br)ccc2O)=CN2CCc3c([nH]c4ccc(OC)cc34)C12C(=O)OCC` (centres undefined), the melting point was 225 °C.

Consider `O=CC=C(Cl)c1cccc([N+](=O)[O-])c1`, for which the melting point was 83 °C.

For the molecule `NCCOc1ccc(C=CC(=O)N2CCc3c([nH]c4ccccc34)C2c2ccc3c(c2)CCO3)cc1` (centres undefined), the melting point is 186 °C.

In the case of `O=C1c2ccc(Br)cc2C(=O)N1c1ccc(Cl)cc1C(F)(F)F`, the melting point fell in the range of 174 to 175 °C.

The molecule `CC(C)(C)OC(=O)N[C@H](Cc1ccccc1)C(=O)N1CCC[C@H]1C(=O)NCc1ccc(C#N)nc1` yielded a melting point of 167 to 170 °C.

`O=C(NCC12CC3CC(CC(C3)C1)C2)c1cc(-c2cccnc2N2CCC(C(=O)O)CC2)ccc1Cl` returned a melting point of 110 to 115 °C.

On to `CCCCNc1cc(CN(Cc2ccccc2)C(C)=O)cc(S(N)(=O)=O)c1Oc1ccccc1`, for which the melting point is 75 to 77 °C.

In turn, `O=[N+]([O-])c1cc([N+](=O)[O-])c(N2CCSCC2)c(C(F)(F)F)c1` had a melting point of 120 to 121 °C.

Take `CN(CC(=C1NCCCS1)[N+](=O)[O-])c1ccccc1`: the melting point fell in the range of 105 to 106 °C.

For the molecule `COc1cc(Cc2nc(NC(C)C)c3c(C)c(C#N)sc3n2)cc(OC)c1OC`, the melting point lay in the range of 143 to 147 °C.

The molecule `COc1ccc(C2(c3ccc(OC)cc3)Nc3ccc(-c4ccc5[nH]cnc5c4)cc3N2)cc1` came in with a melting point of 267 to 270 °C.

As to `COC(=O)Nc1ccc(Cl)c(F)c1I`, the melting point lay within 137 to 139 °C.

`CN1CC[C@@H](c2c(O)cc(O)c3c(=O)cc(-c4ccc(N)cc4Br)oc23)[C@@H]1CO`: the melting point turned out to be 208 °C.

As to `CCCOc1ccc(S(=O)(=O)Nc2ccc3[nH]ncc3c2)cc1-c1nc2cc(N)c([N+](=O)[O-])cc2c(=O)[nH]1`, the melting point was 261 to 263 °C.

`Cc1cn(C(C)(C)C(=O)N(C)C)nc1-c1cccs1` had a melting point of 116 to 119 °C.

As to `O=C(O)CSC(F)(F)F`, the melting point came to 130 °C.

On to `COc1cc(C=NNC2=NCCc3ccccc32)cc(OC)c1O`, for which the melting point was in the range of 232 to 233 °C.

With `CCOC(=O)C1=C(C)NC(C)=C(C(=O)OCC)C1c1ccccc1/C=C(\CC)C(=O)OCC`, the melting point was in the range of 92 to 94 °C.

`Fc1ccc2[nH]cc(CC3CCN(CC4COc5ccc6ncccc6c5O4)CC3)c2c1` (centres undefined) showed a melting point of 184 °C.

`CCn1c2ccc(C(=O)c3ccc(-n4c5ccccc5c5ccccc54)cc3)cc2c2cc(C(C)=NO)ccc21` registered a melting point of 151 to 154 °C.

`Cc1nsc2ccc(-n3c(=O)c(Cl)c(C(F)(F)F)n(C)c3=O)cc12` showed a melting point of 252 to 254 °C.

The molecule `CCOC(=O)CC(=O)c1cc(F)c(Br)c(F)c1F` gave a melting point of 51 to 59 °C.

Take `CCC(C)(O)C(=O)Nc1ccc(S(=O)(=O)c2ccccc2)cc1` (centres undefined): the melting point was in the range of 163 to 165 °C.

For the molecule `O=c1[nH]c2ccccc2n1CCN1CCc2c([nH]c3ccccc23)C1`, the melting point is 214 to 216 °C.

With `NC(=O)Cc1cc(Cl)ccc1[N+](=O)[O-]`, the melting point was 115 to 116 °C.

Molecule `CCOC(=O)c1cc2c(=O)n(C3CCCC3)c3ccccc3n2c1` had a melting point of 183 to 185 °C.

`CN(C)C(=O)Nc1ccc(Oc2ccc3sncc3c2)c(C(F)(F)F)c1`: the melting point was found to be 188 °C.

In the case of `Cc1cccc(CC(Nc2ccc3c(c2)C(=O)OC3)C(=O)NC(C#N)CCCCc2cccc(C(=O)O)c2)c1` (centres undefined), the melting point was in the range of 91 to 94 °C.

`CCCn1cc(Cc2ccc(C(=O)OC)cc2OC)c2cc(C=C(C)C(=O)O)ccc21` had a melting point of 159 to 161 °C.

Molecule `CCOc1ccc(CCNC(=O)C(N)=O)cc1OCC` displayed a melting point of 168 to 169 °C.

`CS(=O)(=O)CCCCC(Cc1ccccc1)S(=O)(=O)c1ccc(Cl)cc1` (centres undefined): the melting point is 68 to 70 °C.

With `CN(C)c1ccc2c(=O)c(-c3nnnn3C)cn(C)c2c1`, the melting point was in the range of 280 to 283 °C.

`O=C(Cc1ccncc1)NC1CCCCC1` had a melting point of 147 to 148 °C.

`CCCc1nc2c(N)nc3cccnc3c2n1CC1(O)CCOCC1` came in with a melting point of 209 to 210 °C.

In the case of `CCCCOc1ccc(CC(=O)N[C@@H](C(=O)OCc2ccccc2)[C@@H](C)O)cc1`, the melting point is 80 to 83 °C.

The molecule `CC(=O)Nc1cc(C(F)(F)F)cc(C(F)(F)F)c1[N+](=O)[O-]` yielded a melting point of 190 to 192 °C.

Molecule `O=C(CN1CCN(c2ccccc2)CC1)c1ccccc1` displayed a melting point of 104 to 106 °C.

`Cc1cc(OC(F)F)nc(NC(=O)NS(=O)(=O)c2cccnc2Cl)n1`: the melting point fell in the range of 161 to 162 °C.

In turn, `O=C(O)Cc1cc(=O)c(O)cn1Cc1ccccc1` returned a melting point of 231 to 235 °C.

For `C=CCNc1nc(N2CCCCC2)c2cc([N+](=O)[O-])ccc2n1`, the melting point is 123 to 124 °C.

`CCN(CC)CCC(=O)O` had a melting point of 65 to 67 °C.

Take `CCOC(=O)c1c(-c2ccncc2)[nH]c(-c2ccccc2)c1C`: the melting point was in the range of 179 to 181 °C.

Take `Cc1cccnc1OC(=O)Oc1ncccc1C`: the melting point lay within 110 to 112 °C.

Molecule `N#Cc1ccc2c(c1)[nH]c(=S)n2NC(=O)c1ccc(Cl)c(S(N)(=O)=O)c1` returned a melting point of 315 °C.

In turn, `N#Cc1ccc(CBr)c(Cl)c1` had a melting point of 83 to 85 °C.

The molecule `Cc1cc(OCc2ccccc2)cc(OCC2CCCCC2)c1C(=O)O` had a melting point of 127 to 128 °C.

Molecule `CC(C)(C)OC(=O)NCc1ccc(C2(C)OCCO2)cc1` came in with a melting point of 105 to 107 °C.

Molecule `COc1ccc(C(=O)Nc2cc(NC(=O)c3ccc(O)cc3)ccc2C)cc1OC` showed a melting point of 258 to 259 °C.

In turn, `O=C(Nc1ccccn1)c1c(O)ccc2cc(-c3cccc(O)c3)ccc12` showed a melting point of 140 °C.

Take `O=C(NN1CCCCC1)c1nc(-c2ccc(Cl)cc2Cl)c(-c2ccc(Br)cc2)s1`: the melting point is 171 to 173 °C.

As for `COC(C)=CC(=O)Nc1cccc(OC(=O)NC(C)C)c1`, the melting point came out at 210 °C.

In turn, `CCCCc1ccc(-c2ccc(CCc3ccc(Cl)cc3)cc2)cc1` registered a melting point of 129 °C.

The molecule `CC1(C)C(=O)N(Cc2ccccc2)C(=O)N1CC#CI` yielded a melting point of 83 to 85 °C.

As for `COc1ccccc1Sc1c(NS(=O)(=O)c2ccc(C(C)(C)C)cc2)ncnc1OCCOC(=O)Nc1ccccn1`, the melting point was determined as 193 °C.

On to `Nc1cc(Oc2ccc3c(C(=O)O)cccc3c2)ncn1`, for which the melting point fell in the range of 288 to 290 °C.

Consider `CC(=O)C(=[N+]=[N-])C(=O)c1ccccn1`, for which the melting point fell in the range of 69 to 74 °C.

For the molecule `COc1cc(C(=O)O)ccc1OCCCCl`, the melting point is 154 to 156 °C.

In turn, `CCC(=O)c1ccsc1N` yielded a melting point of 140 to 142 °C.

Regarding `CC(=O)Nc1ccc(OCC(O)CCCl)cc1` (centres undefined), the melting point was in the range of 124 to 127 °C.

On to `Nc1c(Br)cc(S(=O)(=O)C(F)(F)F)cc1[N+](=O)[O-]`, for which the melting point is 147 °C.

Turning to `NS(=O)(=O)c1cc2c(c(C(=O)O)c1)OCCO2`, the melting point lay within 272 to 274 °C.

`CO/C=C(/C(=O)OC)c1ccccc1/C=C(\Cl)OC(=O)C1=C(c2ccccc2)S(=O)(=O)C(c2ccccc2)C1=O` (centres undefined) registered a melting point of 68 to 72 °C.

For the molecule `N=C(Nc1ccccc1)Nc1ncccc1OCc1c(F)cccc1F`, the melting point lay in the range of 136 to 137 °C.

For the molecule `COC(=O)CCC(=O)c1ccc(-c2ccc(OC)cc2)cc1`, the melting point is 96 to 100 °C.

In the case of `COc1c(N2CCC(O)C(CC(C)C)C2)c(F)cc2c(=O)c(C(=O)O)cn(C3CC3)c12` (centres undefined), the melting point lay within 190 to 192 °C.

Consider `Cc1cc(CNC(=O)c2sc(N3C[C@@H](C)N(Cc4ccc(F)cc4)C3=O)nc2C)no1`, for which the melting point fell in the range of 139 to 140 °C.

`CCCCCCCCCCS(=O)(=O)NC(=O)c1cnc(C(=O)O)c(OC)c1` returned a melting point of 145 °C.

With `Cc1oc2c(C(O)CO)cccc2c1C` (centres undefined), the melting point fell in the range of 93 to 95 °C.

`NC(=O)Cc1ccc(CCCOCCCCCCBr)cc1` came in with a melting point of 110 to 113 °C.

For `Nc1cc(O)ccc1/C=C/c1ccc(O)cc1`, the melting point lay within 229 to 232 °C.

`CC(C)SC(Cc1ccc(OCCN(C)c2nc3ccccc3o2)cc1)C(=O)O` (centres undefined) returned a melting point of 144 to 145 °C.

In turn, `COC(=O)CNc1ccc(CCNC(=O)c2ccc(C#N)cc2)cc1` displayed a melting point of 161 to 162 °C.

By melting point is commonly meant the temperature, or range, at which the solid turns liquid.
